Data taken from the supplement of paper PMC10307832.

Experiments:
Assay in all cases: relative viability (nuclei count vs DMSO), 5 days (fraction); higher = more cells survive
LOU-NH91 = system: LOU-NH91
In short: (§1)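 Relative viability equals treated-well nuclei counts divided by vehicle-well nuclei counts. Counts came from 4× images of lung cancer cell lines grown in 1536-well plates for 5 days after pin-tool dosing on the day after seeding. Dosing used one drug alone or a fixed anchor-drug dose plus five library-drug doses (not always all listed) in √10 steps, and values are medians of duplicate plates.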

HARA = system: HARA
In short: as §1

NCI-H650 = system: NCI-H650
In short: as §1

NCI-H2126 = system: NCI-H2126
In short: as §1

NCI-H1666 = system: NCI-H1666
In short: as §1

NCI-H441 = system: NCI-H441
In short: as §1

NCI-H2347 = system: NCI-H2347
In short: as §1

NCI-H1993 = system: NCI-H1993
In short: as §1

NCI-H23 = system: NCI-H23
In short: as §1

NCI-H838 = system: NCI-H838
In short: as §1

201T = system: 201T
In short: as §1

NCI-H647 = system: NCI-H647
In short: as §1

NCI-H2023 = system: NCI-H2023
In short: as §1

BEN = system: BEN
In short: as §1

LCLC-103H = system: LCLC-103H
In short: as §1

NCI-H727 = system: NCI-H727
In short: as §1

NCI-H1395 = system: NCI-H1395
In short: as §1

NCI-H2009 = system: NCI-H2009
In short: as §1

NCI-H3122 = system: NCI-H3122
In short: as §1

NCI-H596 = system: NCI-H596
In short: as §1

NCI-H2087 = system: NCI-H2087
In short: as §1

EMC-BAC-2 = system: EMC-BAC-2
In short: as §1

HCC-44 = system: HCC-44
In short: as §1

C[C@@H]1CN(CC(=O)Nc2ccc3c(c2)Cc2cccc(-c4cc(=O)cc(N5CCOCC5)o4)c2S3)C[C@H](C)O1 + C[C@]1(O)C[C@@H](c2nc(-c3ccc4ccc(-c5ccccc5)nc4c3)c3c(N)nccn32)C1 [Linsitinib] (partner 1 µM)
relative viability (LOU-NH91; first compound 0.04 µM): 1.02 | relative viability (LOU-NH91; first compound 0.1265 µM): 0.956 | relative viability (LOU-NH91; first compound 0.4 µM): 0.906 | relative viability (LOU-NH91; first compound 4 µM): 0.93 | relative viability (HARA; first compound 0.04 µM): 0.997 | relative viability (HARA; first compound 0.1265 µM): 0.876 | relative viability (HARA; first compound 0.4 µM): 0.893 | relative viability (HARA; first compound 4 µM): 0.906 | relative viability (NCI-H650; first compound 0.04 µM): 0.85 | relative viability (NCI-H650; first compound 0.1265 µM): 0.729 | relative viability (NCI-H650; first compound 0.4 µM): 0.86 | relative viability (NCI-H650; first compound 4 µM): 0.584 | relative viability (NCI-H2126; first compound 0.04 µM): 0.765 | relative viability (NCI-H2126; first compound 0.1265 µM): 0.762 | relative viability (NCI-H2126; first compound 0.4 µM): 0.707 | relative viability (NCI-H2126; first compound 4 µM): 0.722 | relative viability (NCI-H1666; first compound 0.04 µM): 1.08 | relative viability (NCI-H1666; first compound 0.1265 µM): 0.908 | relative viability (NCI-H1666; first compound 0.4 µM): 0.839 | relative viability (NCI-H1666; first compound 4 µM): 0.565 | relative viability (NCI-H441; first compound 0.04 µM): 0.404 | relative viability (NCI-H441; first compound 0.1265 µM): 0.573 | relative viability (NCI-H441; first compound 0.4 µM): 0.536 | relative viability (NCI-H441; first compound 4 µM): 0.433 | relative viability (NCI-H2347; first compound 0.04 µM): 0.883 | relative viability (NCI-H2347; first compound 0.1265 µM): 1.05 | relative viability (NCI-H2347; first compound 0.4 µM): 1.01 | relative viability (NCI-H2347; first compound 4 µM): 1.02 | relative viability (NCI-H1993; first compound 0.04 µM): 0.716 | relative viability (NCI-H1993; first compound 0.1265 µM): 0.733 | relative viability (NCI-H1993; first compound 0.4 µM): 0.848 | relative viability (NCI-H1993; first compound 4 µM): 0.805 | relative viability (NCI-H23; first compound 0.04 µM): 0.609 | relative viability (NCI-H23; first compound 0.1265 µM): 0.496 | relative viability (NCI-H23; first compound 0.4 µM): 0.489 | relative viability (NCI-H23; first compound 4 µM): 0.494 | relative viability (NCI-H838; first compound 0.04 µM): 0.931 | relative viability (NCI-H838; first compound 0.1265 µM): 0.984 | relative viability (NCI-H838; first compound 0.4 µM): 0.871 | relative viability (NCI-H838; first compound 4 µM): 0.688 | relative viability (201T; first compound 0.04 µM): 1.09 | relative viability (201T; first compound 0.1265 µM): 1.01 | relative viability (201T; first compound 0.4 µM): 1.01 | relative viability (201T; first compound 4 µM): 1.01 | relative viability (NCI-H647; first compound 0.04 µM): 1.28 | relative viability (NCI-H647; first compound 0.1265 µM): 1.12 | relative viability (NCI-H647; first compound 0.4 µM): 0.926 | relative viability (NCI-H647; first compound 4 µM): 0.76 | relative viability (NCI-H2023; first compound 0.04 µM): 0.751 | relative viability (NCI-H2023; first compound 0.1265 µM): 0.669 | relative viability (NCI-H2023; first compound 0.4 µM): 0.433 | relative viability (NCI-H2023; first compound 4 µM): 0.496 | relative viability (BEN; first compound 0.04 µM): 0.782 | relative viability (BEN; first compound 0.1265 µM): 0.832 | relative viability (BEN; first compound 0.4 µM): 1.1 | relative viability (BEN; first compound 4 µM): 0.86 | relative viability (LCLC-103H; first compound 0.04 µM): 1.09 | relative viability (LCLC-103H; first compound 0.1265 µM): 0.896 | relative viability (LCLC-103H; first compound 0.4 µM): 1.18 | relative viability (LCLC-103H; first compound 4 µM): 1.14 | relative viability (NCI-H727; first compound 0.04 µM): 0.38 | relative viability (NCI-H727; first compound 0.1265 µM): 0.348 | relative viability (NCI-H727; first compound 0.4 µM): 0.332 | relative viability (NCI-H727; first compound 4 µM): 0.3 | relative viability (NCI-H1395; first compound 0.04 µM): 1.14 | relative viability (NCI-H1395; first compound 0.1265 µM): 1.16 | relative viability (NCI-H1395; first compound 0.4 µM): 0.992 | relative viability (NCI-H1395; first compound 4 µM): 0.953 | relative viability (NCI-H2009; first compound 0.04 µM): 1.24 | relative viability (NCI-H2009; first compound 0.1265 µM): 1.13 | relative viability (NCI-H2009; first compound 0.4 µM): 1.1 | relative viability (NCI-H2009; first compound 4 µM): 0.961 | relative viability (NCI-H3122; first compound 0.04 µM): 1.07 | relative viability (NCI-H3122; first compound 0.1265 µM): 0.933 | relative viability (NCI-H3122; first compound 0.4 µM): 1.02 | relative viability (NCI-H3122; first compound 4 µM): 0.99 | relative viability (NCI-H596; first compound 0.04 µM): 1.12 | relative viability (NCI-H596; first compound 0.1265 µM): 1.15 | relative viability (NCI-H596; first compound 0.4 µM): 0.922 | relative viability (NCI-H596; first compound 4 µM): 1 | relative viability (NCI-H2087; first compound 0.04 µM): 0.939 | relative viability (NCI-H2087; first compound 0.1265 µM): 1 | relative viability (NCI-H2087; first compound 0.4 µM): 0.91 | relative viability (NCI-H2087; first compound 4 µM): 0.772 | relative viability (EMC-BAC-2; first compound 0.04 µM): 0.805 | relative viability (EMC-BAC-2; first compound 0.1265 µM): 0.765 | relative viability (EMC-BAC-2; first compound 0.4 µM): 0.757 | relative viability (EMC-BAC-2; first compound 4 µM): 0.77 | relative viability (HCC-44; first compound 0.04 µM): 0.636 | relative viability (HCC-44; first compound 0.1265 µM): 0.683 | relative viability (HCC-44; first compound 0.4 µM): 0.537 | relative viability (HCC-44; first compound 4 µM): 0.632
